Measured values reported in patent publication US12509474B2, “Inhibitors of complement factors and uses thereof” (Annexon, Inc., priority 2020, dated 2025).
Counter-ions that a name gives are not always drawn.

Target: T1, human C1s protein (Homo sapiens, UniProt P09871)
T1 construct: A104
T1 sequence (P09871 16-688): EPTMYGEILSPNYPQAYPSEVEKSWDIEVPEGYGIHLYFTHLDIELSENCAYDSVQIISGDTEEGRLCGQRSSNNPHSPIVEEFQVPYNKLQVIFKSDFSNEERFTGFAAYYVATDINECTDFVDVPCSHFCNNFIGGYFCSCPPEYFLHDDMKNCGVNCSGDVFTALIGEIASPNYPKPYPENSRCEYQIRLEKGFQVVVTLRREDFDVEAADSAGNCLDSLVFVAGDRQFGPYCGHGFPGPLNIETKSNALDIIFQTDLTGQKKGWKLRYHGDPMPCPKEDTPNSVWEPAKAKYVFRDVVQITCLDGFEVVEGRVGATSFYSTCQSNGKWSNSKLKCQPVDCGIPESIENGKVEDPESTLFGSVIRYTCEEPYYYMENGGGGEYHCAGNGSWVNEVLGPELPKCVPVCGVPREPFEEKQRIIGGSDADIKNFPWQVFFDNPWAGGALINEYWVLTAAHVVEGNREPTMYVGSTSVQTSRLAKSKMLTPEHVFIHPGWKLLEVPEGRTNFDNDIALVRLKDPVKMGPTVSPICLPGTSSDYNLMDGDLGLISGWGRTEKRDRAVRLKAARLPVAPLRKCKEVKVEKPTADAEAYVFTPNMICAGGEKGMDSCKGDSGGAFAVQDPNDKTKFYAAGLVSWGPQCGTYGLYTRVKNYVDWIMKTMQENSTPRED
Assay: C1s enzymatic assay (hydrolysis of YLGR-Rh110-dPro)
Format: biochemical
Conditions: substrate YLGR-Rh110-dPro 20 μM, 15 min pre-incubation, 60 min RT, fluorescence, read-out: hC1s pIC50 (converted)
In short: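 Fluorogenic assay in which C1s cleaves YLGR-Rh110-dPro (20 μM final) to release fluorescent Rh110, in buffer with 0.1 mg/mL BSA. Enzyme was preincubated 15 min with compound before substrate was added. Compounds were run as 11-point curves, with DMSO as high control and Nafamostat as low control.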

IC50 | SMILES
4.68 nM | COc1cc2c(cc1-c1ccc3c(N)nnc(C)c3c1)B(O)OCC2 [Example 32, 6-(1-hydroxy-6-methoxy-3,4-dihydro-2,1-benzoxazonin-7-yl)-4-methylphthalazin-1-amine Formic Acid Salt]
1.05 nM | Cc1nnc(N)c2ccc(-c3cc(B(O)O)cc(C(F)(F)F)c3)cc12 [Example 38]
2.19 nM | Cc1nnc(N)c2ccc(-c3ccc4c(c3)B(O)OCC4)cc12 [Example 26, Formic Acid Salt]
57.5 nM | CC(C)CCC(=O)Nc1ccc(B(O)O)cc1-c1ccc2c(N)cnnc2c1 [Example 65, [3-(4-aminocinnolin-7-yl)-4-(4-methylpentanamido)phenyl]boronic Acid Formic Acid Salt]
6.31 nM | COc1ccc(B(O)O)cc1-c1ccc2c(N)nncc2c1 [Example 2, [3-(1-aminophthalazin-6-yl)-4-methoxyphenyl]boronic Acid Formic Acid Salt]
> 25100 nM | COc1ccc(B(O)O)cc1-c1cc(OC)c2ccnnc2c1 [Example 162, [4-methoxy-3-(5-methoxycinnoline-7-yl)phenyl]boronic Acid]
1 nM | COCCOCCOc1ccc(B(O)O)cc1-c1ccc2c(N)cnnc2c1 [Example 107, [3-(4-aminocinnolin-7-yl)-4-[2-(2-methoxyethoxy)ethoxy]phenyl]boronic Acid]
4.07 nM | COc1ccc(B(O)O)c(F)c1-c1ccc2c(N)cnnc2c1 [Example 48, [3-(4-aminocinnolin-7-yl)-2-fluoro-4-methoxyphenyl]boronic Acid]
1 nM | Cc1nnc(N)c2ccc(-c3ccc(NC(=O)c4ccccc4Cl)c(B(O)O)c3)cc12 [Example 93, [5-(1-amino-4-methylphthalazin-6-yl)-2-[(2-chlorobenzoyl)amino]phenyl]boronic Acid]
0.813 nM | COc1cc(OC(F)(F)F)c(B(O)O)cc1-c1ccc2c(N)nnc(C)c2c1 [Example 44, [5-(1-amino-4-methylphthalazin-6-yl)-4-methoxy-2-(trifluoromethoxy)phenyl]boronic Acid]
1.02 nM | Cc1nnc(N)c2ccc(-c3ccc4c(c3)B(O)OC(C)C4)cc12 (single isomer, unassigned) [Example 72, 6-(1-hydroxy-3-methyl-3,4-dihydro-2,1-benzoxazonin-7-yl)-4-methylphthalazin-1-amine]
28.8 nM | Cc1nnc(N)c2ccc(-c3cc(B(O)O)ccc3P(C)(C)=O)cc12 [Example 62, [3-(1-amino-4-methylphthalazin-6-yl)-4-dimethylphosphorylphenyl]boronic Acid Formic Acid Salt]
1.91 nM | CC1Cc2ccc(-c3ccc4c(N)cnnc4c3)cc2B(O)O1 (single isomer, unassigned) [Example 94]
224 nM | CNc1cnnc2cc(-c3cc(B(O)O)ccc3OC)ccc12 [Example 75, [4-methoxy-3-[4-(methylamino)cinnolin-7-yl]phenyl]boronic Acid]
1.29 nM | Cc1ncc(Oc2ccc(B(O)O)cc2-c2ccc3c(N)cnnc3c2)s1 [Example 171, [3-(4-aminocinnolin-7-yl)-4-(2-methylthiazol-5-yl)oxy-phenyl]Boronic Acid Formic Acid Salt]
15.1 nM | CC(C)CC(=O)Nc1ccc(B(O)O)cc1-c1ccc2c(N)cnnc2c1 [Example 64, [3-(4-aminocinnolin-7-yl)-4-(3-methylbutanamido)phenyl]boronic Acid Formic Acid Salt]

IC50 | SMILES
5.89 nM | Cc1nnc(N)c2ccc(-c3ccc4c(c3)B(O)OC(=O)C4)cc12 [Example 56, Trifluoroacetic Acid Salt]
2.14 nM | COc1cc(C(F)(F)F)c(-c2ccc3c(N)nnc(C)c3c2)cc1B(O)O [Example 63, [5-(1-amino-4-methylphthalazin-6-yl)-2-methoxy-4-(trifluoromethyl)phenyl]boronic Acid]
4.9 nM | C[C@@H]1C[C@@H](Oc2ccc(B(O)O)cc2-c2ccc3c(N)cnnc3c2)C[C@H](C)O1 [Example 121, [3-(4-aminocinnolin-7-yl)-4-{[(2R,4S,6S)-2,6-dimethyloxan-4-yl]oxy}phenyl]boronic Acid]
5.5 nM | Nc1nncc2cc(-c3cc(B(O)O)ccc3NC(=O)c3ccccc3Cl)ccc12 [Example 18, [3-(1-aminophthalazin-6-yl)-4-[(2-chlorobenzoyl)amino]phenyl]boronic Acid Formic Acid Salt]
12.6 nM | CS(=O)(=O)c1ccc(B(O)O)cc1-c1ccc2c(N)cnnc2c1 [Example 164, [3-(4-aminocinnolin-7-yl)-4-methylsulfonylphenyl]boronic acid formic acid salt]
17.4 nM | Cc1nnc(N)c2ccc(-c3ccc4c(c3)B(O)OCC4(F)F)cc12 [Example 66, 6-(4,4-difluoro-1-hydroxy-3H-2,1-benzoxazonin-7-yl)-4-methylphthalazin-1-amine]
10 nM | COc1cc2c(cc1-c1ccc3c(N)nnc(C)c3c1)B(O)OC2 [Example 20, 6-(1-hydroxy-5-methoxy-3H-2,1-benzoxaborol-6-yl)-4-methylphthalazin-1-amine]
66.1 nM | COc1ccc(B(O)O)cc1-c1cnc2c(N)cnnc2c1 [Example 144, (3-{4-aminopyrido[3,2-C]pyridazin-7-yl}-4-methoxyphenyl)boronic Acid]
0.617 nM | Cc1nnc(N)c2ccc(-c3cc(B(O)O)ccc3OC(F)F)cc12 [Example 131, [3-(1-amino-4-methylphthalazin-6-yl)-4-(difluoromethoxy)phenyl]boronic Acid Formic Acid Salt]
1.91 nM | Cc1nnc(N)c2ccc(-c3cc(B(O)O)ccc3C#N)cc12 [Example 29, [3-(1-amino-4-methylphthalazin-6-yl)-4-cyanophenyl]boronic Acid]
1.02 nM | Cc1nnc(N)c2ccc(-c3cc(B(O)O)cc(P(C)(C)=O)c3)cc12 [Example 40, [3-(1-amino-4-methylphthalazin-6-yl)-5-dimethylphosphorylphenyl]boronic Acid Formic Acid Salt]
2.04 nM | COc1ncc(B(O)O)cc1-c1ccc2c(N)nnc(C)c2c1 [Example 30, [5-(1-amino-4-methylphthalazin-6-yl)-6-methoxypyridin-3-yl]boronic Acid]
1.1 nM | Nc1cnnc2cc(-c3cc(B(O)O)ccc3OCC(F)(F)F)ccc12 [Example 118, [3-(4-aminocinnolin-7-yl)-4-(2,2,2-trifluoroethoxy)phenyl]boronic Acid Formic Acid Salt]
6.03 nM | Nc1cnnc2cc(-c3cc(B(O)O)ccc3OC3CCC(=O)NC3)ccc12 (stereo not shown) [Example 126, [3-(4-aminocinnolin-7-yl)-4-[(6-oxopiperidin-3-yl)oxy]phenyl]boronic Acid]
1.62 nM | Nc1cnnc2cc(-c3cc(B(O)O)cc4c3OCC4)ccc12 [Example 138, [7-(4-aminocinnolin-7-yl)-2,3-dihydro-1-benzofuran-5-yl]boronic Acid Formic Acid Salt]
50.1 nM | Nc1cnnc2cc(-c3cc(B(O)O)ccc3N3CCCC3)ccc12 [Example 150, [3-(4-aminocinnolin-7-yl)-4-(pyrrolidin-1-yl)phenyl]boronic Acid Formic Acid Salt]

SMILES | IC50
Nc1cnnc2cc(-c3cc(B(O)O)ccc3OC3CCC3)ccc12 [Example 117, [3-(4-aminocinnolin-7-yl)-4-cyclobutoxyphenyl]boronic Acid] | 0.708 nM
Nc1cnnc2cc(-c3cc(B(O)O)ccc3OC3CC(F)(F)C3)ccc12 [Example 142, [3-(4-aminocinnolin-7-yl)-4-(3,3-difluorocyclobutoxy)phenyl]boronic Acid Formic Acid Salt] | 1.17 nM
